Measurements from ChEMBL document CHEMBL1201862, “PubChem BioAssay data set” (2004).
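Briefly, cells in 96-well plates were exposed to five compound concentrations for 48 h, and endpoints were estimated by linear interpolation. Here, GI50 denotes the concentration required for 50% inhibition of growth.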 Active and inactive are the calls of the source. Cut-off read from the data, not from the text of the source: active = GI50 up to about 1.1 µM and inactive = higher.

How the values were obtained:
Assay in all cases: NCI-60 cell line screen, 48 h
SF-295 = tested on: SF-295
U-251 = tested on: U-251
HOP-92 = tested on: HOP-92
NCI-H460 = tested on: NCI-H460
K562 = tested on: K562
DU-145 = tested on: DU-145
NCI-H23 = tested on: NCI-H23
SNB-19 = tested on: SNB-19
UO-31 = tested on: UO-31
SK-MEL-28 = tested on: SK-MEL-28
HT-29 = tested on: HT-29
EKVX = tested on: EKVX
PC-3 = tested on: PC-3
SW-620 = tested on: SW-620
MOLT-4 = tested on: MOLT-4
MDA-MB-231 = tested on: MDA-MB-231
UACC-257 = tested on: UACC-257
A549 = tested on: A549
786-0 = tested on: 786-0
SN12C = tested on: SN12C
SF-539 = tested on: SF-539
OVCAR-4 = tested on: OVCAR-4
M14 = tested on: M14
SK-OV-3 = tested on: SK-OV-3
CCRF-CEM = tested on: CCRF-CEM
HL-60 = tested on: HL-60
OVCAR-8 = tested on: OVCAR-8
HOP-62 = tested on: HOP-62
MCF7 = tested on: MCF7
KM12 = tested on: KM12
HCT-15 = tested on: HCT-15
T47D = tested on: T47D
HCC 2998 = tested on: HCC 2998
HCT-116 = tested on: HCT-116
OVCAR-5 = tested on: OVCAR-5
SR = tested on: SR
SNB-75 = tested on: SNB-75
OVCAR-3 = tested on: OVCAR-3
NCI/ADR-RES = tested on: NCI/ADR-RES
MDA-MB-435 = tested on: MDA-MB-435
TK-10 = tested on: TK-10
BT-549 = tested on: BT-549
LOX IMVI = tested on: LOX IMVI
SF-268 = tested on: SF-268
COLO 205 = tested on: COLO 205
RPMI-8226 = tested on: RPMI-8226
MDA-N = tested on: MDA-N
SK-MEL-5 = tested on: SK-MEL-5
NCI-H522 = tested on: NCI-H522
UACC-62 = tested on: UACC-62
IGROV-1 = tested on: IGROV-1
NCI-H226 = tested on: NCI-H226
ACHN = tested on: ACHN
A498 = tested on: A498
CAKI-1 = tested on: CAKI-1
RXF 393 = tested on: RXF 393
Malme-3M = tested on: Malme-3M
SK-MEL-2 = tested on: SK-MEL-2

Measured: GI50

C1CSCCSCCCSC2CCCCC2SC1 (centres undefined)
inactive: SF-295 > 100 µM | U-251 > 100 µM | HOP-92 34.4 µM | NCI-H460 > 100 µM | K562 45 µM | DU-145 > 100 µM | NCI-H23 80.5 µM | SNB-19 > 100 µM | UO-31 > 100 µM | SK-MEL-28 > 100 µM | HT-29 25.4 µM | EKVX > 100 µM | PC-3 68.2 µM | SW-620 > 100 µM | MOLT-4 26 µM | MDA-MB-231 60 µM | UACC-257 > 100 µM | A549 > 100 µM | 786-0 > 100 µM | SN12C > 100 µM | SF-539 > 100 µM | OVCAR-4 > 100 µM | M14 > 100 µM | SK-OV-3 > 100 µM | CCRF-CEM > 100 µM | HL-60 17.3 µM | OVCAR-8 > 100 µM | HOP-62 > 100 µM | MCF7 > 100 µM | KM12 > 100 µM | T47D > 100 µM | HCC 2998 > 100 µM | HCT-116 > 100 µM | OVCAR-5 > 100 µM | SR 46.5 µM | SNB-75 > 100 µM | OVCAR-3 > 100 µM | NCI/ADR-RES 83.9 µM | MDA-MB-435 > 100 µM | TK-10 > 100 µM | BT-549 > 100 µM | LOX IMVI > 100 µM | SF-268 > 100 µM | COLO 205 86.3 µM | RPMI-8226 45.4 µM | MDA-N > 100 µM | SK-MEL-5 43.2 µM | NCI-H522 > 100 µM | UACC-62 > 100 µM | IGROV-1 > 100 µM
> 100 µM: HCT-15

Cn1c(=O)oc2cc(C(O)CN3CCN(Cc4ccccn4)CC3)c(Cl)cc21 (centres undefined)
inactive: SF-295 > 100 µM | U-251 > 100 µM | HOP-92 > 100 µM | NCI-H460 > 100 µM | K562 > 100 µM | DU-145 > 100 µM | NCI-H23 > 100 µM | SNB-19 > 100 µM | UO-31 > 100 µM | SK-MEL-28 > 100 µM | HT-29 > 100 µM | EKVX > 100 µM | PC-3 > 100 µM | SW-620 > 100 µM | MOLT-4 > 100 µM | MDA-MB-231 > 100 µM | UACC-257 > 100 µM | A549 > 100 µM | 786-0 > 100 µM | SN12C > 100 µM | SF-539 > 100 µM | OVCAR-4 > 100 µM | M14 > 100 µM | SK-OV-3 > 100 µM | CCRF-CEM > 100 µM | HL-60 > 100 µM | OVCAR-8 > 100 µM | NCI-H226 > 100 µM | HOP-62 > 100 µM | MCF7 > 100 µM | KM12 > 100 µM | T47D > 100 µM | HCC 2998 > 100 µM | HCT-116 > 100 µM | ACHN > 100 µM | OVCAR-5 > 100 µM | SR 23.3 µM | A498 > 100 µM | SNB-75 77.3 µM | OVCAR-3 > 100 µM | MDA-MB-435 > 100 µM | TK-10 > 100 µM | BT-549 > 100 µM | LOX IMVI > 100 µM | SF-268 > 100 µM | CAKI-1 > 100 µM | COLO 205 > 100 µM | RXF 393 > 100 µM | Malme-3M > 100 µM | MDA-N > 100 µM | NCI-H522 > 100 µM | UACC-62 > 100 µM | IGROV-1 > 100 µM
> 100 µM: HCT-15
active: NCI/ADR-RES 0.461 µM

CCOC(=O)c1c(C)cc(=O)n2c1[nH]c1ccccc12
inactive: SF-295 74.6 µM | U-251 34.6 µM | HOP-92 > 100 µM | NCI-H460 14.1 µM | K562 50.9 µM | DU-145 > 100 µM | NCI-H23 > 100 µM | SNB-19 88.3 µM | UO-31 > 100 µM | SK-MEL-28 > 100 µM | HT-29 > 100 µM | EKVX > 100 µM | PC-3 > 100 µM | SW-620 > 100 µM | MOLT-4 > 100 µM | MDA-MB-231 36.6 µM | UACC-257 > 100 µM | SK-MEL-2 > 100 µM | A549 82.2 µM | 786-0 63.5 µM | SN12C 37.4 µM | SF-539 31 µM | M14 > 100 µM | SK-OV-3 > 100 µM | CCRF-CEM > 100 µM | HL-60 > 100 µM | OVCAR-8 > 100 µM | NCI-H226 > 100 µM | MCF7 > 100 µM | T47D > 100 µM | HCC 2998 78.7 µM | HCT-116 57.1 µM | ACHN 42.5 µM | OVCAR-5 > 100 µM | A498 40.3 µM | OVCAR-3 > 100 µM | NCI/ADR-RES > 100 µM | TK-10 99.3 µM | BT-549 > 100 µM | LOX IMVI > 100 µM | CAKI-1 17.2 µM | COLO 205 > 100 µM | RXF 393 > 100 µM | Malme-3M > 100 µM | MDA-N 64 µM | SK-MEL-5 > 100 µM | UACC-62 > 100 µM | IGROV-1 > 100 µM
50.9 µM: HCT-15

Cc1ccc(C(=O)N/N=C(\N=N\c2ccc(C(=O)O)cc2)c2ccc(N(CCC#N)CCC#N)cc2C)cc1
inactive: SF-295 > 100 µM | U-251 > 100 µM | HOP-92 > 100 µM | NCI-H460 > 100 µM | K562 > 100 µM | DU-145 > 100 µM | NCI-H23 > 100 µM | SNB-19 > 100 µM | UO-31 > 100 µM | SK-MEL-28 > 100 µM | HT-29 > 100 µM | EKVX > 100 µM | PC-3 > 100 µM | SW-620 > 100 µM | MOLT-4 > 100 µM | MDA-MB-231 > 100 µM | UACC-257 > 100 µM | SK-MEL-2 > 100 µM | A549 > 100 µM | 786-0 > 100 µM | SN12C > 100 µM | SF-539 > 100 µM | OVCAR-4 > 100 µM | M14 > 100 µM | SK-OV-3 80.7 µM | CCRF-CEM > 100 µM | HL-60 79.3 µM | OVCAR-8 > 100 µM | NCI-H226 > 100 µM | HOP-62 > 100 µM | MCF7 > 100 µM | KM12 > 100 µM | T47D 70.5 µM | HCC 2998 > 100 µM | HCT-116 > 100 µM | ACHN > 100 µM | OVCAR-5 > 100 µM | SR > 100 µM | A498 53.8 µM | SNB-75 43.9 µM | OVCAR-3 62.8 µM | NCI/ADR-RES > 100 µM | MDA-MB-435 > 100 µM | TK-10 > 100 µM | BT-549 83 µM | LOX IMVI > 100 µM | CAKI-1 > 100 µM | COLO 205 > 100 µM | RXF 393 32.1 µM | RPMI-8226 > 100 µM | MDA-N > 100 µM | SK-MEL-5 > 100 µM
> 100 µM: HCT-15

OC1c2[nH]c3ccccc3c2CCN2CCCCC12 (centres undefined)
inactive: SF-295 > 100 µM | U-251 > 100 µM | HOP-92 51.1 µM | NCI-H460 > 100 µM | K562 > 100 µM | DU-145 > 100 µM | NCI-H23 > 100 µM | SNB-19 > 100 µM | SK-MEL-28 > 100 µM | HT-29 > 100 µM | EKVX > 100 µM | PC-3 > 100 µM | SW-620 > 100 µM | MOLT-4 > 100 µM | MDA-MB-231 > 100 µM | UACC-257 > 100 µM | SK-MEL-2 > 100 µM | A549 > 100 µM | 786-0 > 100 µM | SN12C > 100 µM | SF-539 > 100 µM | OVCAR-4 > 100 µM | M14 > 100 µM | SK-OV-3 > 100 µM | CCRF-CEM > 100 µM | HL-60 > 100 µM | OVCAR-8 > 100 µM | NCI-H226 > 100 µM | HOP-62 > 100 µM | MCF7 > 100 µM | KM12 > 100 µM | T47D > 100 µM | HCC 2998 75.3 µM | HCT-116 > 100 µM | ACHN > 100 µM | OVCAR-5 > 100 µM | SR > 100 µM | A498 > 100 µM | SNB-75 59.4 µM | OVCAR-3 > 100 µM | NCI/ADR-RES > 100 µM | MDA-MB-435 > 100 µM | TK-10 > 100 µM | BT-549 > 100 µM | LOX IMVI > 100 µM | SF-268 > 100 µM | CAKI-1 > 100 µM | COLO 205 > 100 µM | RXF 393 > 100 µM | Malme-3M > 100 µM | RPMI-8226 > 100 µM | MDA-N > 100 µM | NCI-H522 > 100 µM | UACC-62 > 100 µM | IGROV-1 > 100 µM
> 100 µM: HCT-15
